Source: publication PMC2585998 (Molecular cell, 2008)

Target: SpoIVA (IVA; His6-SpoIVA) (Bacillus subtilis, UniProt P35149, K30A)
Assay: ATPase, ADP production by TLC of alpha-32P-ATP
Format: biochemical
Details: Walker A mutant, diminished hydrolysis; 10 mM MgCl2, pH 7.5, 37 C

SpoIVA (IVA; His6-SpoIVA), sequence (P35149 whole entry K30A): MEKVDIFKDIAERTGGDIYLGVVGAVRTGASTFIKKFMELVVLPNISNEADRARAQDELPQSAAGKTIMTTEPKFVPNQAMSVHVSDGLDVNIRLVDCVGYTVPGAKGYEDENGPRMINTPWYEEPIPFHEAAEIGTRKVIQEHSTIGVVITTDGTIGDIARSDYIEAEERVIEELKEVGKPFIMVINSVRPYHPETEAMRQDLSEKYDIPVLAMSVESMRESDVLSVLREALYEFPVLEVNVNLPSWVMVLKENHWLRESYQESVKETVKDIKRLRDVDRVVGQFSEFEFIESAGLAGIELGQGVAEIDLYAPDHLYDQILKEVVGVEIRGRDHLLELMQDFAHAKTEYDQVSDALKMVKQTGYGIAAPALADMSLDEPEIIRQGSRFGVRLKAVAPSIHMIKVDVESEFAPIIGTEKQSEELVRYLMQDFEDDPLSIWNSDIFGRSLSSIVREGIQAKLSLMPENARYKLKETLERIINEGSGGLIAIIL

## Nc1ncnc2c1ncn2[C@@H]1O[C@H](COP(=O)(O)OP(=O)(O)OP(=O)(O)O)[C@@H](O)[C@H]1O [ATP]
  ATPase, ADP production by TLC of alpha-32P-ATP: Incubation of ATP with IVA^K30A, in contrast, led to the diminished accumulation of ADP
